According to patent US10947252B2, “Inhibitors of KEAP1-Nrf2 protein-protein interaction” (Janssen Pharmaceutica NV, priority 2018, dated 2021):

What was measured:
[1] = target: Kelch domain of human KEAP1 (321-624 aa) (Homo sapiens (Human), UniProt Q14145); test: KEAP1 KELCH ThermoFluor binding assay; conditions: KEAP Kelch […], 1,8-ANS, pH 7.0, average of results obtained, read-out: Tf Kd;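 further: Ligand-induced melting temperature shift of E. coli-expressed KEAP1 Kelch protein, Kd estimated from concentration-response curves of ΔTm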
Kelch domain of human KEAP1 (321-624 aa), sequence (Q14145 321-624): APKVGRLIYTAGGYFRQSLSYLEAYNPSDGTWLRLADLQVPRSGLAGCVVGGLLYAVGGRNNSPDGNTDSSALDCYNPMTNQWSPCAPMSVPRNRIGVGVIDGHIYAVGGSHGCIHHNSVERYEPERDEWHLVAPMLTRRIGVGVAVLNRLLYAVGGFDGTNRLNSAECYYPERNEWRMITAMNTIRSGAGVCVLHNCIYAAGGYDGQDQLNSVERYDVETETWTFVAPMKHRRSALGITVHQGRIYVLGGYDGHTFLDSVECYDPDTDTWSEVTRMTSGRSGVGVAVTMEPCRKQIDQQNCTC

[2] = test system: Glo-Response ARE-luc2P HEK293 cell line; test: ARE luciferase reporter cell-based assay; conditions: Homo sapiens, HEK293, 24 h, average of results obtained;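 further: luciferase signal tracks Nrf2 activation of the ARE once compounds disrupt KEAP1-Nrf2 binding, read with One-Glo reagent, DMSO serving as low control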

Compound | Kd [1] | EC50 [2]
Cc1ccc([C@H](CC(=O)O)c2ccn3c(C(F)(F)F)nnc3c2C)cc1CN1CC2(CC2)Oc2nc(NCCO)ccc2S1(=O)=O (single isomer, unassigned) [Example 101, (*S)-3-(3-((7′-((2-Hydroxyethyl)amino-1′,1′-dioxidospiro[cyclopropane-1.4′-pyrido[2,3-b][1,4,5]oxathiazepin]-2′(3′H)-yl)methyl)-4-methylphenyl)-3-(8-methyl-3-(trifluoromethyl)-[1,2,4]triazolo[4,3-a]pyridinn-7-yl)propanoic Acid] | < 1 nM | 577 nM
CCn1nnc2c(C)c(C(CC(=O)O)c3ccc(C)c(CN4C[C@@H]5CCCN5c5ncccc5S4(=O)=O)c3)ccc21 (mixture of isomers) [Example 155, (R/S)-3-(3-(((S)-5,5-Dioxido-7a,8,9,10-tetrahydropyrido[2,3-f]pyrrolo[2,1-d][1,2,5]thiadiazepin-6(7H)-yl)methyl)-4-methylphenyl)-3-(1-ethyl-4-methyl-1H-benzo[d][1,2,3]triazol-5-yl)propanoic Acid] | < 1 nM | 6.1 nM
Cc1ccc([C@@H](c2ccn3c(C(F)F)nnc3c2C)C(C)(C)C(=O)O)cc1CN1CC2(CCOCC2)Oc2ncccc2S1(=O)=O (single isomer, unassigned) [Example 53, (*S)-3-(3-(Difluoromethyl)-8-methyl-[1,2,4]triazolo[4,3-a]pyridin-7-yl)-3-(3-((1′,1′-dioxido-2,3,5,6-tetrahydrospiro[pyran-4,4′-pyrido[2,3-b][1,4,5]oxathiazepin]-2′(3′H)-yl)methyl)-4-methylphenyl)-2,2-dimethylpropanoic Acid] | < 1 nM | 3.9 nM
Cc1ccc([C@@H](CC(=O)O)c2ccn3c(C(F)F)nnc3c2C)cc1CN1C[C@H]2CCCN2c2ncccc2S1(=O)=O (single isomer, unassigned) [Example 451, (*R)-3-(3-(Difluoromethyl)-8-methyl-[1,2,4]triazolo[4,3-a]pyridin-7-yl)-3-(3-(((R)-5,5-dioxido-7a,8,9,10-tetrahydropyrido[2,3-f]pyrrolo[2,1-d][1,2,5]thiadiazepin-6(7H)-yl)methyl)-4-methylphenyl)propanoic Acid] | < 1 nM | 265 nM
Cc1cnc2c(c1)S(=O)(=O)N(Cc1nc(C(CC(=O)O)c3ccn4c(C(F)(F)F)nnc4c3C)ccc1C)C[C@H]1CCCCN21 (stereo in doubt) [Example 490, 3-(8-Methyl-3-(trifluoromethyl)-[1,2,4]triazolo[4,3-a]pyridin-7-yl)-3-(5-methyl-6-(((*R)-3-methyl-5,5-dioxido-7,7a,8,9,10,11-hexahydro-6H-dipyrido[2,1-d:2′,3′-f][1,2,5]thiadiazepin-6-yl)methyl)pyridin-2-yl)propanoic Acid] | < 1 nM | 5.85 nM
Cc1cnc2c(c1)S(=O)(=O)N(Cc1cc(C(c3ccn4c(C(F)(F)F)nnc4c3C)C(C)(C)C(=O)O)cnc1C)CC1(CCOCC1)O2 (racemic) [Example 584, (R/S)-2,2-Dimethyl-3-(8-methyl-3-(trifluoromethyl)-[1,2,4]triazolo[4,3-a]pyridin-7-yl)-3-(6-methyl-5-((8′-methyl-1′,1′-dioxido-2,3,5,6-tetrahydrospiro[pyran-4,4′-pyrido[2,3-b][1,4,5]oxathiazepin]-2′(3′H)-yl)methyl)pyridin-3-yl)propanoic Acid] | < 1 nM | 478 nM
Cc1ccc([C@@H](c2ccn3c(C(F)(F)F)nnc3c2C)C(C)(C)C(=O)O)cc1CN1CC2(CC2)Oc2nc(OCCN3CCOCC3)c(C)cc2S1(=O)=O (single isomer, unassigned) [Example 597, (*S)-2,2-dimethyl-3-(4-methyl-3-((8′-methyl-7′-(2-morpholinoethoxy)-1′,1′-dioxidospiro[cyclopropane-1,4′-pyrido[2,3-b][1,4,5]oxathiazepin]-2′,(3′H)-yl)methyl)phenyl)-3-(8-methyl-3-(trifluoromethyl)-[1,2,4]triazolo[4,3-a]pyridine-7-yl)propanoic Acid] | < 1 nM | 2.79 nM
CCc1nnc2c(C)c([C@H](CC(=O)O)c3ccc(C)c(CN4C[C@H]5CCCN5c5ccccc5S4(=O)=O)c3)ccn12 (single isomer, unassigned) [Example 280, (*R)-3-(3-(((R)-5,5-Dioxido-7a,8,9,10-tetrahydrobenzo[f]pyrrolo[2,1-d][1,2,5]thiadiazepin-6(7H)-yl)methyl)-4-methylphenyl)-3-(3-ethyl-8-methyl-[1,2,4]triazolo[4,3-a]pyridin-7-yl)propanoic Acid] | < 1 nM | 4010 nM
Cc1cnc2c(c1)S(=O)(=O)N(Cc1cc([C@H](c3ccn4c(C(F)(F)F)nnc4c3C)C(C)(C)C(=O)O)cnc1C)CC1(CCOCC1)O2 (single isomer, unassigned) [Example 585, (*S)-2,2-Dimethyl-3-(8-methyl-3-(trifluoromethyl)-[1,2,4]triazolo[4,3-a]pyridin-7-yl)-3-(6-methyl-5-((8′-methyl-1′,1′-dioxido-2,3,5,6-tetrahydrospiro[pyran-4,4′-pyrido[2,3-b][1,4,5]oxathiazepin]-2′(3′H)-yl)methyl)pyridin-3-yl)propanoic Acid] | < 1 nM | 253 nM
Cc1ccc([C@@H](c2ccn3c(C(F)(F)F)nnc3c2C)C(C)(C)C(=O)O)cc1CN1CC2(CNC2)Oc2ncccc2S1(=O)=O (single isomer, unassigned) [Example 338, (*S)-3-(3-((1′,1′-Dioxidospiro[azetidine-3,4′-pyrido[2,3-b][1,4,5]oxathiazepin]-2′(3′H)-yl)methyl)-4-methylphenyl)-2,2-dimethyl-3-(8-methyl-3-(trifluoromethyl)-[1,2,4]triazolo[4,3-a]pyridin-7-yl)propanoic Acid] | < 1 nM | 13.1 nM
Cc1cnc([C@@H](c2ccn3c(C(F)(F)F)nnc3c2C)C(C)(C)C(=O)O)cc1CN1CC2(CCOCC2)Oc2ncccc2S1(=O)=O (single isomer, unassigned) [Example 56, (*S)-3-(4-((1′,1′-Dioxido-2,3,5,6-tetrahydrospiro[pyran-4,4′-pyrido[2,3-b][1,4,5]oxathiazepin]-2′(3′H)-yl)methyl)-5-methylpyridin-2-yl)-2,2-dimethyl-3-(8-methyl-3-(trifluoromethyl)-[1,2,4]triazolo[4,3-a]pyridin-7-yl)propanoic Acid] | < 1 nM | 48 nM
Cc1ccc([C@H](CC(=O)O)c2ccc3c(nnn3CC3CC3)c2C)cc1CN1C[C@@]2(C)CCCN2c2ncccc2S1(=O)=O (single isomer, unassigned) [Example 82, (*S)-3-(1-(Cyclopropylmethyl)-4-methyl-1H-benzo[d][1,2,3]triazol-5-yl)-3-(4-methyl-3-(((*R)-7a-methyl-5,5-dioxido-7a,8,9,10-tetrahydropyrido[2,3-f]pyrrolo[2,1-d][1,2,5]thiadiazepin-6(7H)-yl)methyl)phenyl)propanoic Acid] | 80 nM | 3350 nM
Cc1ccc([C@H](c2ccn3c(C(F)(F)F)nnc3c2C)[C@H](C)C(=O)O)cc1CN1CC2(CC2)Oc2ncccc2S1(=O)=O (single isomer, unassigned) [Example 554, (2S,3*R)-3-(3-(Trifluoromethyl)-8-methyl-[1,2,4]triazolo[4,3-a]pyridin-7-yl)-3-(3-((1′,1′-dioxidospiro[cyclopropane-1,4′-pyrido[2,3-b][1,4,5]oxathiazepin]-2′(3′H)-yl)methyl)-4-methylphenyl)-2-methylpropanoic Acid] | < 1 nM | 181 nM
Cc1ccc([C@H](CC(=O)O)c2ccn3c(C(F)(F)F)nnc3c2C)cc1CN1CC2(COC2)Oc2ncccc2S1(=O)=O (single isomer, unassigned) [Example 260, (*S)-3-(3-((1′,1′-Dioxidospiro[oxetane-3,4′-pyrido[2,3-b][1,4,5]oxathiazepin]-2′(3′H)-yl)methyl)-4-methylphenyl)-3-(8-methyl-3-(trifluoromethyl)-[1,2,4]triazolo[4,3-a]pyridin-7-yl)propanoic Acid] | < 1 nM | 101 nM
Cc1ccc([C@@H](CC(=O)O)c2ccc3c(nnn3C3CC3)c2C)cc1CN1C[C@@H]2COCCN2c2ncccc2S1(=O)=O (single isomer, unassigned) [Example 25, (*R)-3-(1-Cyclopropyl-4-methyl-1H-benzo[d][1,2,3]triazol-5-yl)-3-(3-(((*R)-5,5-dioxido-7a,8,10,11-tetrahydro-[1,4]oxazino[3,4-d]pyrido[2,3-f][1,2,5]thiadiazepin-6(7H)-yl)methyl)-4-methylphenyl)propanoic Acid] | 2.12 nM | 21 nM
Cc1ccc(C(CC(=O)O)c2ccc3c(nnn3C3CC3)c2C)cc1CN1C[C@@H]2CCCCN2c2ccccc2S1(=O)=O (mixture of isomers) [Example 217, (R/S)-3-(1-Cyclopropyl-4-methyl-1H-benzo[d][1,2,3]triazol-5-yl)-3-(3-(((*S)-5,5-dioxido-7,7a,8,9,10,11-hexahydro-6H-benzo[f]pyrido[2,1-d][1,2,5]thiadiazepin-6-yl)methyl)-4-methylphenyl)propanoic Acid] | < 1 nM | 11 nM
Cc1ccc([C@H](c2ccn3c(C(F)(F)F)nnc3c2C)C(C)(C)C(=O)O)cc1CN1CC(C)(C)Oc2ncccc2S1(=O)=O (single isomer, unassigned) [Example 431, (*R)-3-(3-((4,4-dimethyl-1,1-dioxido-3,4-dihydro-2H-pyrido[2,3-b][1,4,5]oxathiazepin-2-yl)methyl)-4-methylphenyl)-2,2-dimethyl-3-(8-methyl-3-(trifluoromethyl)-[1,2,4]triazolo[4,3-a]pyridin-7-yl)propanoic Acid] | < 1 nM | 2.84 nM
Cc1cc2cc([C@@H](CC(=O)O)c3ccc(C)c(CN4C[C@@H]5CCCN5c5ncccc5S4(=O)=O)c3)n(C)c2nn1 (single isomer, unassigned) [Example 438, (*S)-3-(3,7-Dimethyl-7H-pyrrolo[2,3-c]pyridazin-6-yl)-3-(3-(((S)-5,5-dioxido-7a,8,9,10-tetrahydropyrido[2,3-f]pyrrolo[2,1-d][1,2,5]thiadiazepin-6(7H)-yl)methyl)-4-methylphenyl)propanoic Acid] | 234 nM | > 20000 nM
